Data from patent US20230338397A1, “COMPOSITION COMPRISING CANNABINOIDS, AND/OR TERPENS, AND METHODS OF USING SAME” (priority 2020, published 2023).
“Also recorded” adds a separate entry of the source.

Legend:
[1] = tested on: enzymatically-dissociated human NP; test: NP organ culture: cell death by PI and flow cytometry after enzymatic digestion; details: for cell death of incubated nasal polyp cells: 72 h, FIG. 10
[2] = tested on: dispersed nasal polyp cells; test: Cell death of dispersed NP cells (PI, flow cytometry), 2 h; format: cell-based, human; details: 10 μM, 2 h incubation, FIG. 12
Procedure: DNPCs are prepared from nasal polyps by means of enzymatic digestion. Nasal Polyps are incubated for 2 hours at 37° C. in RPMI 1640 (1 g of tissue per 4 mL) containing 2.0 mg/mL protease, 1.5 mg/mL collagenase, 0.75 mg/mL hyaluronidase, and 0.05 mg/mL DNase. The cell suspension is then filtered through a […] cell strainer to remove any undigested tissue and washed 2 times with washing medium (RPMI 1640 supplemented with 2% FCS, 2 mmol/L glutamine, 100 U/mL penicillin, and […] streptomycin). The cell pellet is resuspended in erythrocyte lysis buffer and washed with washing medium. After washing, DNPCs are suspended in culture medium (RPMI 1640 supplemented with 10% Foetal Calf Serum (FCS), 2 mmol/L glutamine, 100 U/mL penicillin, and […] streptomycin).
The effect of the treatment is evaluated by cell death parameters, using […] (PI) and flow cytometry (FACS) analysis, and enzymatic-linked immunoassay (ELISA).

[3] = tested on: human NP tissue; test: NP organ culture: tissue weight reduction ex-vivo; details: for NP tissue weight reduction: 150 μM
[4] = tested on: human Jurkat T cell line; test: T cell death in Jurkat cells (PI, flow cytometry); details: 2 h, FIG. 11; for T cell death compared to vehicle: CBD 1-20 μM, CBG 5-20 μM
[5] = tested on: GM-CSF; test: GM-CSF level in SEB-stimulated dispersed nasal polyp cells; format: cell-based, human; details: CBD 2.5 μM, 5 μM, 10 μM, 30 min before SEB, FIG. 8
[6] = tested on: human nasal polyp (NP) whole tissues; test: NP organ culture: detachment of cells/tissue pieces from nasal polyp (micrographs)

SMILES: C=C(C)[C@@H]1CCC(C)=C[C@H]1c1c(O)cc(CCCCC)cc1O [CBD, cannabidiol]
- percent of dead cells ([1]; CBD 15 μM, 150 μM, 1.5 mM, 24 h, PI-positive, FIG. 7): significantly increased the percent of dead cells
- cell death of incubated nasal polyp cells ([1]; CBD alone 150 μM): substantial cell death
- cell death % of dispersed NP cells [2]: significant increase in cell death %; also recorded: significant increase in cell death
- NP tissue weight reduction ([3]; 3 h incubation, FIG. 4): significant tissue weight reduction; also recorded: significant nasal polyp weight reduction
- NP tissue weight reduction ([3]; CBD 15 μM, 1.5 mM, 24 h incubation, FIG. 5): significant human NP tissue weight reduction; also recorded: significant dose-dependent nasal polyp weight reduction
- T cell death compared to vehicle [4]: significant cell death compared to control
- GM-CSF level [5]: significantly decrease; also recorded: significantly reduces or inhibits
- detachment of cells/tissue pieces from the main NP ([6]; CBD 150 μM, 3 h incubation, FIG. 1): starting to detach from the main NP whole tissue; also recorded: starting to detach and disaggregate from the main polyp
- cells/tissue pieces breaking off the main polyp ([6]; CBD 150 μM, 72 h incubation, FIG. 3): cells/tissue pieces are breaking off the main polyp into the medium
- detachment of cells/tissues from the main NP ([6]; CBD 600 μM, 24 h incubation, FIG. 2): significant detachment of cells/tissues; also recorded: significant detachment of nasal polyp cells/pieces

SMILES: C=C(C)[C@@H]1CCC(C)=C[C@H]1c1c(O)cc(CCC)cc1O [CBDV, cannabidivarin]
- T cell death ([4]; CBDV 20 μM): induce cell death

SMILES: CCCCCc1cc(O)c(C/C=C(\C)CCC=C(C)C)c(O)c1 [CBG, cannabigerol]
- cell death of NP cells ([1]; CBG 150 μM, FIG. 13C-13D): substantial cell death
- cell death % of dispersed NP cells [2]: significant increase in cell death %; also recorded: significant increase in cell death
- size of nasal polyps ([3]; CBG 150 μM, 24 h, FIG. 13A): size of nasal polyps is reduced
- T cell death compared to vehicle [4]: significant cell death compared to control

SMILES: CCCCCc1cc(O)c2c(c1)OC(C)(C)[C@@H]1CCC(C)=C[C@@H]21 [THC, tetrahydrocannabinol]
- viability of nasal polyp cells (cell death) ([1]; THC 10 μM and 100 μM, 24 h, FIG. 9): comparable effect as CBD at 15 μM and 150 μM, respectively
- % cell death ([1]; THC 100 μM, FIG. 9): comparable effect to CBD at a concentration of 150 μM
- cell death of incubated nasal polyp cells ([1]; THC alone 10 μM): negligible
